Earlier results in US12569571B2, “Salt responsive nanogels and nanoparticles” (HOWARD UNIVERSITY, priority 2016, dated 2026).

Conditions: studies have shown

In the case of `CNC` [dimethylamine], the “pKa (apparent pKa for PEI)” value is listed as “about 10”.
